What was measured:
A549 cells = test: In vitro anti-proliferative SRB assay, A549; type: cell-based, human; conditions: for IC50: Homo sapiens, A549, increasing concentrations up to 30 μM, mean ± SD of at least three independent experiments; for SI (CC50 HMLE/IC50 A549) / SI (CC50 L02/IC50 A549): selectivity index; for SI (CC50 HMLE/IC50 A549): HMLE vs A549; for SI (CC50 L02/IC50 A549): L02 vs A549
Procedure: (§1) HepG2 and MCF7 cells were grown in the Eagle’s minimum essential medium with Earle’s balanced salts (MEM-EBSS) medium, HeLa, A549 and L02 cells were grown in Dulbecco’s Modified Eagle Media (DMEM), SW1990 cells were grown in RPMI-1640 medium, and HMLE cell were grown in DMEM/F-12 medium. […]
(§2) Cells were seeded into 96-well plates (4000 cells/well) and incubated at 37 °C in a humidified 5% CO2 atmosphere. After 24 h, the cells were treated with different concentrations of the compounds for 48 h in triplicate to generate dose-response curves. Cell viability was evaluated using the sulforhodamine B (SRB) assay as previous described.

[1] = Cytotoxicity (SRB) against non-tumoral HMLE cells; type: cell-based, human; conditions: human, HMLE cells (non-tumoral human mammary epithelial cells); increasing concentrations up to 100 μM; mean ± SD of at least three independent experiments; read-out: Normal Human Cell Lines, CC50, HMLE
Procedure: (§3) All compounds were also evaluated for their cytotoxic activity against two non-tumoral human cell lines named human mammary epithelial cell (HMLE) and L02 (a human liver cell line) in Table 2 and SI values between the CC50 in non-tumoral cell lines and IC50 in tumoral cells calculated.
as §1
as §2, with “described. […] Etoposide was used as the positive control.” for “described.”

HeLa cells = test: In vitro anti-proliferative SRB assay, HeLa; type: cell-based, human; conditions: for IC50: Homo sapiens, HeLa, increasing concentrations up to 30 μM, mean ± SD of at least three independent experiments; for SI (CC50 HMLE/IC50 Hela) / SI (CC50 L02/IC50 Hela): selectivity index; for SI (CC50 HMLE/IC50 Hela): HMLE vs HeLa; for SI (CC50 L02/IC50 Hela): L02 vs HeLa
Procedure: as §1, §2

[2] = Cytotoxicity (SRB) against non-tumoral L02 cells; type: cell-based, human; conditions: human, L02 cells (non-tumoral human liver cell line); increasing concentrations up to 100 μM; mean ± SD of at least three independent experiments; read-out: Normal Human Cell Lines, CC50, L02
Procedure: as §3, §1
as §2, with “described. […] Etoposide was used as the positive control.” for “described.”

SW1990 cells = test: In vitro anti-proliferative SRB assay, SW1990; type: cell-based, human; conditions: for IC50: Homo sapiens, SW1990, increasing concentrations up to 30 μM, mean ± SD of at least three independent experiments; for SI (CC50 HMLE/IC50 SW1990) / SI (CC50 L02/IC50 SW1990): selectivity index; for SI (CC50 HMLE/IC50 SW1990): HMLE vs SW1990; for SI (CC50 L02/IC50 SW1990): L02 vs SW1990
Procedure: as §1, §2

MCF-7 cells = test: In vitro anti-proliferative SRB assay, MCF-7; type: cell-based, human; conditions: for IC50: Homo sapiens, MCF7, increasing concentrations up to 30 μM, mean ± SD of at least three independent experiments; for SI (CC50 HMLE/IC50 MCF7) / SI (CC50 L02/IC50 MCF7): selectivity index; for SI (CC50 HMLE/IC50 MCF7): HMLE vs MCF7; for SI (CC50 L02/IC50 MCF7): L02 vs MCF7
Procedure: as §1, §2

HepG2 cells = test: In vitro anti-proliferative SRB assay, HepG2; type: cell-based, human; conditions: for IC50: Homo sapiens, HepG2, increasing concentrations up to 30 μM, mean ± SD of at least three independent experiments; for SI (CC50 HMLE/IC50 HepG2) / SI (CC50 L02/IC50 HepG2): selectivity index; for SI (CC50 HMLE/IC50 HepG2): HMLE vs HepG2; for SI (CC50 L02/IC50 HepG2): L02 vs HepG2
Procedure: as §1, §2

| Compound | IC50 (A549 cells) [µM] | SI (CC50 HMLE/IC50 A549) (A549 cells) | SI (CC50 L02/IC50 A549) (A549 cells) | CC50 at 48 h [1] [µM] | IC50 (HeLa cells) [µM] | SI (CC50 HMLE/IC50 Hela) (HeLa cells) | SI (CC50 L02/IC50 Hela) (HeLa cells) | CC50 at 48 h [2] [µM] | IC50 (SW1990 cells) [µM] | SI (CC50 HMLE/IC50 SW1990) (SW1990 cells) | SI (CC50 L02/IC50 SW1990) (SW1990 cells) | IC50 (MCF-7 cells) [µM] | SI (CC50 HMLE/IC50 MCF7) (MCF-7 cells) | SI (CC50 L02/IC50 MCF7) (MCF-7 cells) | melting point [°C] | IC50 (HepG2 cells) [µM] | SI (CC50 HMLE/IC50 HepG2) (HepG2 cells) | SI (CC50 L02/IC50 HepG2) (HepG2 cells) |
| --- | --- | --- | --- | --- | --- | --- | --- | --- | --- | --- | --- | --- | --- | --- | --- | --- | --- | --- |
| COc1cccc(OC)c1/C=C/C(=O)c1ccc(O)cc1 [b26, (E)-1-(4-Hydroxyphenyl)-3-(2,6-dimethoxyphenyl)prop-2-en-1-one] | 23.8 ± 1.56 | 0.5 | 1.2 | 12.6 ± 2.82 | 12.7 ± 0.81 | 1.0 | 2.2 | 28.2 ± 1.69 | 20.8 ± 0.54 | 0.6 | 1.4 | 20.2 ± 0.3 | 0.6 | 1.4 | 189.6 to 191.4 | 14.4 ± 0.81 | 0.9 | 2.0 |
| CCOc1ccc(C(=O)/C=C/c2c(OC)cccc2OC)cc1 [b10, (E)-1-(4-Ethoxyphenyl)-3-(2,6-dimethoxyphenyl)prop-2-en-1-one] | 22.7 ± 0.57 | 0.6 | 1.6 | 13.8 ± 3.77 | 14.4 ± 0.15 | 1.0 | 2.6 | 36.7 ± 3.41 | 19.5 ± 0.23 | 0.7 | 1.9 | 19.8 ± 0.69 | 0.7 | 1.9 | 99 to 101.2 | 10.9 ± 0.46 | 1.3 | 3.4 |
| COc1cccc(OC)c1/C=C/C(=O)c1ccc(Cl)cc1Cl [b37, (E)-1-(2,4-Dichlorophenyl)-3-(2,6-dimethoxyphenyl)prop-2-en-1-one] | > 30 | <0.7 |  | 19.8 ± 1.44 | 15.7 ± 1.09 | 1.3 | >6.4 | > 100 | 15.4 ± 0.83 | 1.3 | >6.5 | 30.4 ± 0.71 | 0.7 | >3.3 | 111.1 to 112.7 | 11.7 ± 0.18 | 1.7 | >8.5 |
| COc1cccc(OC)c1/C=C/C(=O)c1ccc(OCc2ccccc2)cc1 [b13, (E)-1-(4-(Benzyloxy)phenyl)-3-(2,6-dimethoxyphenyl)prop-2-en-1-one] | > 30 |  |  | > 100 | > 30 |  |  | > 100 | > 30 |  |  | > 30 |  |  | 96.6 to 97.8 | 21.8 ± 0.62 | >4.6 | >4.6 |
| COc1cccc(OC)c1/C=C/C(=O)c1cccc(Br)c1 [b36, (E)-1-(3-Bromophenyl)-3-(2,6-dimethoxyphenyl)prop-2-en-1-one] | 25 ± 3.17 | 0.5 | 2.4 | 13.1 ± 1.21 | 13.4 ± 0.44 | 1.0 | 4.6 | 61.2 ± 12.1 | 17.1 ± 0.57 | 0.8 | 3.6 | 23.3 ± 0.79 | 0.6 | 2.6 | 135.7 to 138.2 | 11.3 ± 1.45 | 1.2 | 5.4 |
| COc1cccc(OC)c1/C=C/C(=O)c1ccc(F)cc1 [b33, (E)-1-(4-Fluorophenyl)-3-(2,6-dimethoxyphenyl)prop-2-en-1-one] | > 30 | <0.4 | <2.1 | 12.7 ± 2.35 | 17.4 ± 0.39 | 0.7 | 3.7 | 63.9 ± 13.8 | > 30 | <0.4 | <2.1 | 32.2 ± 1.34 | 0.4 | 2.0 | 108.2 to 109.6 | 24.6 ± 0.36 | 0.5 | 2.6 |
| COc1ccc(C(=O)/C=C/c2c(OC)cccc2OC)c(OCc2ccccc2)c1 [b14, (E)-1-(2-(Benzyloxy)-4-methoxyphenyl)-3-(2,6-dimethoxyphenyl)prop-2-en-1-one] | > 30 |  |  | > 100 | > 30 |  |  | > 100 | > 30 |  |  | > 30 |  |  | 82.2 to 83.6 | > 30 |  |  |
| COc1cccc(OC)c1/C=C/C(=O)c1ccc2c(c1)CCO2 [b21, (E)-1-(2,3-Dihydrobenzofuran-5-yl)-3-(2,6-dimethoxyphenyl)prop-2-en-1-one] | 22.3 ± 0.99 | 0.7 | 2.6 | 14.6 ± 0.81 | 21.6 ± 0.43 | 0.7 | 2.7 | 57.5 ± 13.6 | 24.4 ± 0.6 | 0.6 | 2.4 | 22.6 ± 2.1 | 0.6 | 2.5 | 118.8 to 120.2 | 17.3 ± 0.23 | 0.8 | 3.3 |
| COc1cccc(OC)c1/C=C/C(=O)c1cccc(F)c1 [b32, (E)-1-(3-Fluorophenyl)-3-(2,6-dimethoxyphenyl)prop-2-en-1-one] | 27.2 ± 1.39 | 0.4 | 2.7 | 11.9 ± 1.28 | 20.7 ± 0.78 | 0.6 | 3.5 | 72 ± 12.1 | 28.38 ± 0.27 | 0.4 | 2.5 | 25.5 ± 0.78 | 0.5 | 2.8 | 105.4 to 107.3 | 21.6 ± 0.97 | 0.6 | 3.3 |
| COc1cccc(C(=O)/C=C/c2c(OC)cccc2OC)c1 [b7, (E)-1-(3-Methoxyphenyl)-3-(2,6-dimethoxyphenyl)prop-2-en-1-one] | 14 ± 0.19 | 0.6 | 1.3 | 8.14 ± 0.53 | 9.98 ± 0.37 | 0.8 | 1.8 | 18.1 ± 5.82 | 15.6 | 0.5 | 1.2 | 6.37 ± 0.05 | 1.3 | 2.8 | 93.5 to 95.6 | 6.97 ± 0.55 | 1.2 | 2.6 |
| CCOc1cccc(C(=O)/C=C/c2c(OC)cccc2OC)c1 [b9, (E)-1-(3-Ethoxyphenyl)-3-(2,6-dimethoxyphenyl)prop-2-en-1-one] | 13.2 ± 0.43 | 0.7 | 1.3 | 9.58 ± 0.44 | 12.2 ± 0.25 | 0.8 | 1.4 | 17.4 ± 5.96 | 10.68 ± 0.08 | 0.9 | 1.6 | 11.59 ± 0.07 | 0.8 | 1.5 | 63.1 to 64.8 | 7.71 ± 0.21 | 1.2 | 2.3 |

Reference: publication PMC6271338, “Synthesis and Cytotoxic Evaluation of Alkoxylated Chalcones” (Molecules, 2014)
